Experimental data taken from patent US20090030013A1, “SUBSTITUTED TETRAHYDRO-QUINOLINE-SULFONAMIDE COMPOUNDS, THEIR PREPARATION AND USE AS MEDICAMENTS” (LABORATORIES DEL DR. ESTEVE, S.A., priority 2007, published 2009).
Where a name gives a salt, the structure may show the parent alone.

Molecular target: T1, 5HT6-human recombinant receptor (Homo sapiens, UniProt P50406)
T1 construct: purchased Receptor Biology; host or cells: HEK-293 cell membranes
Test: Binding to serotonin receptor 5-HT6 ([3H]-LSD radioligand displacement)
Conditions: [3H]-LSD 2.7 nM, HEK-293 cell membranes
Procedure: I) Binding to Serotonin Receptor 5-HT6
Cell membranes of HEK-293 cells expressing the 5HT6-human recombinant receptor were supplied by Receptor Biology. In said membranes the receptor concentration is 2.18 pmol/mg protein and the protein concentration is 9.17 mg/ml. The experimental protocol follows the method of B. L. Roth et al. [B. L. Roth, S. C. Craigo, M. S. Choudhary, A. Uluer, F. J. Monsma, Y. Shen, H. Y. Meltzer, D. R. Sibley: Binding of Typical and Atypical Antipsychotic Agents to 5-Hydroxytryptamine-6 and Hydroxytryptamine-7 Receptors. The Journal of Pharmacology and Experimental Therapeutics, 1994, 268, 1403] with the following slight changes. The respective part of the literature description is hereby incorporated by reference and forms part of the disclosure.
The commercial membrane is diluted (1:40 dilution) with the binding buffer: 50 mM Tris-HCl, 10 mM MgCl2, 0.5 mM EDTA (pH 7.4). The radioligand used is [^3H]-LSD at a concentration of 2.7 nM with a final volume of 200 μl. […] Non-specific binding is determined in the presence of 100 μM of serotonin. […] The inhibition constants (Ki, nM) were calculated by non-linear regression analysis using the program EBDA/LIGAND [Munson and Rodbard, Analytical Biochemistry, 1980, 107, 220]., the respective part of which is hereby incorporated by reference and forms part of the disclosure.

T1 sequence (P50406 whole entry): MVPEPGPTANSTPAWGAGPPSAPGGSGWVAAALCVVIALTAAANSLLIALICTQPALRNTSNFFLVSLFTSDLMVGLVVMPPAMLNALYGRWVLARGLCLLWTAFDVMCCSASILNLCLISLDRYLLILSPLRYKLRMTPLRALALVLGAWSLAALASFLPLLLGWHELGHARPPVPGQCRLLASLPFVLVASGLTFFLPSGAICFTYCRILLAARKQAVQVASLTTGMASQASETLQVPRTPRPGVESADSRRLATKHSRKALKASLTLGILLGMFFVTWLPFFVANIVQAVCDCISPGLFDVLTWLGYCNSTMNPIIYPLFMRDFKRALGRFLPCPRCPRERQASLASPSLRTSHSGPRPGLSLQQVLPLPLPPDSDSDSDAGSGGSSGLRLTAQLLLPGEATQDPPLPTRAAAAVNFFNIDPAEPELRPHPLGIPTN

Q: With `CC1CCc2c(N3CCNCC3)cccc2N1S(=O)(=O)c1cccc2ccccc12` (stereo not drawn) [Compound 3, 1,2,3,4-tetrahydro-2-methyl-5-(piperazin-1-yl)-1-α-naphthylsulfonyl)quinoline trifluoroacetate] as the compound, how does the Ki (tests in triplicate) read?
A: The Ki was 31.4 ± 0.8 nM.

Q: What about the inhibition at 0.1 µM (compound at 10^−7 M) of the same compound?
A: The inhibition at 0.1 µM was 85.8%.
